# Measured values taken from ChEMBL document CHEMBL5728798, “Macrocycles as factor XIA inhibitors” (2021).
# Molecular target: Coagulation factor XI (Homo sapiens, UniProt P03951)
# Experiment: In Vitro Assays: Factor XIa determinations were made in 50 mM HEPES buffer at pH 7.4 containing 145 mM NaCl, 5 mM KCl, and 0.1% PEG 8000 (polyethylene glycol; JT Baker or Fisher Scientific). Determinations were made using purified human Factor XIa at a final concentration of 25-200 pM (Haematologic Technologies) and the synthetic substrate S-2366 (pyroGlu-Pro-Arg-pNA; CHROMOGENIX® or AnaSpec) at a concentration of 0.0002-0.001 M.
# Sequence of Coagulation factor XI (P03951 19-387 limits assumed): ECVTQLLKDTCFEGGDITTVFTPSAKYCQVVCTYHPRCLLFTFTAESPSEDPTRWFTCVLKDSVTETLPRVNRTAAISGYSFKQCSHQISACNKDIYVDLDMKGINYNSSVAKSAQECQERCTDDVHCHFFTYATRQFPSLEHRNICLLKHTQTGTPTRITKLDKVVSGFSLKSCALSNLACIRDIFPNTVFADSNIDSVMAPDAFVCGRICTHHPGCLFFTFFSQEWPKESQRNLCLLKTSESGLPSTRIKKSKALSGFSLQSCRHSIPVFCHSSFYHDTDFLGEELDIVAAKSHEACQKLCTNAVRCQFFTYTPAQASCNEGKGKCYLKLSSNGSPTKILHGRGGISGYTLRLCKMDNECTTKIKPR
# Sequence of Coagulation factor XI (P03951 388-625 limits assumed): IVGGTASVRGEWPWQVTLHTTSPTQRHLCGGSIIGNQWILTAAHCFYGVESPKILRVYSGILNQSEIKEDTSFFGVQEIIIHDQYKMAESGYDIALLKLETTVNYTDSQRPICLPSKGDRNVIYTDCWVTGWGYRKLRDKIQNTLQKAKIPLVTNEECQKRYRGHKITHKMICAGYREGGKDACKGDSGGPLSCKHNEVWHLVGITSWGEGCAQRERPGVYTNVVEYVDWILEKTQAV
compound,measurement,value
COC(=O)Nc1ccc2c(c1)N[C@@H](C(F)F)CCCC[C@H](NC(=O)/C=C/c1cc(Cl)ccc1-n1cnnn1)c1nc-2c[nH]1,Ki,289 nM
